# According to patent US6149948A, “Method of decreasing plasma cholesterol and triglycerides with a chromium-containing complex” (University of Alabama, priority 1999, dated 2000):
# Assays:
# pUC19 plasmid DNA [1] = details: cited from earlier work
# [2] = tested on: insulin-activated insulin receptor; details: cited from earlier work
# male Sprague Dawley rats [3] = experiment: Plasma variables after 4, 8 and 12 weeks of supplementation; type: in vivo, rat
# Experimental: Solid food intake and body mass were monitored daily.
# Blood was collected from the tail after four, eight, and twelve weeks of Cr or H2 O administration. Prior to blood collection, animals were fasted 12 to 15 hours.
# Immediately after blood removal, 0.5 mg/mL heparin and 10 mg/mL NaF were added to the blood. Blood was next immediately centrifuged; the blood plasma was tested for glucose, total cholesterol, triglycerides, low density lipoprotein (LDL) cholesterol (week 12 only), and high density lipoprotein (HDL) cholesterol (week 12 only) using Diagnostic Kits from Sigma Chemical Co. (St. Louis, Mo.) and insulin using double antibody or antibody coated kits from ICN Biomedicals (Costa Mesa, Calif.).
# Statistical analyses were performed by analysis of variance. All values are presented as mean±SEM. P values are calculated using standard deviations.
# male Sprague Dawley rats [4] = experiment: 12-week chromium supplementation of rats: body and tissue masses, toxic effects
# Experimental: (§1) Four week old male Sprague Dawley rats were allowed to fed ad libitum on a commercial rat food and tap water. Rats were raised in standard plastic and stainless steel cages on a 12 hour light-dark cycle. Solid food intake and body mass were monitored daily. Twenty four rats were divided randomly into three groups of eight. […] The last group was injected with 200 μL of doubly deionized water daily and served as the control. After 12 weeks, the animals were sacrificed by carbon dioxide asphyxiation. Liver, kidney, heart, pancreas, testes, and epididymal fat were quickly harvested and weighed. Liver and kidney were placed into plastic screw-top containers and stored at -80° C. for further analysis.
# DH5α E. coli cells = details: DNA incubated 3 hrs with complex and peroxide; ampicillin plates
# Experimental: A reaction mixture containing 10 μg of pUC19, 1.5 mM 1, and 0.900 mM H2 O in 10 mM Tris, pH 8.0 was allowed to react for 3 hours at 25° C. Quench buffer was added, and the sample was immediately loaded onto a 1% agarose gel containing 0.5 μg ml^-1 of ethidium bromide. After electrophoresis in 1×TBE buffer, the band at 3.5 kB was excised from the gel, and the DNA was removed from the gel using a Qiagen gel purification kit. The eluted DNA was gel-quantitated and used without further modification for transformation.
# Electrocompetent DH5α E. coli cells were electroporated using 1 μL of 0.1 μg mL^-1 of either trimer-nicked DNA or supercoiled pUC19 plasmid DNA in 50 μL of cells. The E. coli cells were rescued by adding 1 mL of SOC media (20 gL^-1 Bactotryptone, 5 gL^-1 yeast extract, 9 mM NaCl, 20 mM glucose, pH 7.5), followed by incubation at 37° C. for 1 hour. Each cell suspension was diluted 1:100 with SOC media, and 50 μL of each diluted suspension was spread on separate LB-ANM agar plates containing 80 μg mL^-1 X-gal, 100 μM IPTG, and 100 μg mL^-1 ampicillin. The X-gal and IPTG were added to facilitate detection of colonies. The plates were placed in a 37° C. incubator overnight.
# male Sprague Dawley rats [5] = details: rat, in vivo
# Experimental: as §1
# pUC19 plasmid DNA [6] = tested on: pUC19 plasmid DNA
# Experimental: The reactions contain pUC19 (39 μM in base pairs) and 50 μM phosphate buffer, pH 7.0, and: Lane 2, 5 MM ascorbate; Lanes 3-7, 5 mM ascorbate and 120, 40, 4.0, 0.40, and 0.040 μM 1, respectively; Lane 8, 5 mM ascorbate and 1.2 μM Cr(pic)3 ; Lane 9, 5 mM ascorbate and 120 pM 1 under argon; Lane 10, 5 mM ascorbate, 120 μM 1, and 1 M EtOH; Lane 11, 5 mM ascorbate, 120 μM 1, and 1 M t-BuOH; Lane 12, 5 mM ascorbate, 120 μM 1, and 100 μg/mL SOD; and Lane 13, 5 mM ascorbate, 120 μl , and 100 μ/mL catalase. Reactions were allowed to proceed 60 minutes before quenching.
# A typical reaction was carried out mixing aliquots of pUC19 (in 5 μM Tris, 500 EDTA buffer (pH 8.0)), reductant in H2 O, LMWCr in 50 mM NH4 OAc (pH 6.5) or 1 in H2 O, phosphate buffer (pH 7.0), and H2 O to give a final volume of 15 μL; the final phosphate concentration was 50 mM. Inhibitors were added as solutions in H2 O, solutions in phosphate buffer, or as neat liquids. Reactions were allowed to proceed 180 minutes unless otherwise noted. All reactions were quenched by addition of loading buffer (24% glycerol and 0.1% bromophenol blue). Seven microliter aliquots were loaded directly onto a 1% agarose gel and electrophoresed at 60 V. The gel was stained with ethidium bromide and was photographed on a UV transilluminator. […]
# [7] = tested on: cultured Chinese hamster ovary cells; details: cited from earlier work
# rats = details: up to 1500 μg/kg diet for up to 24 weeks; cited from earlier work
# [8] = plasma, Week 4, fasted rats, 20 μg Cr/kg daily i.v., mean ± SEM
# [9] = plasma, Week 8, fasted rats, 20 μg Cr/kg daily i.v., mean ± SEM
# [10] = plasma, Week 12, fasted rats, 20 μg Cr/kg daily i.v., mean ± SEM
compound,measurement,setting,value
"CCC(=O)[O-].CCC(=O)[O-].CCC(=O)[O-].CCC(=O)[O-].CCC(=O)[O-].CCC(=O)[O-].O.O.O.[Cr+3].[Cr+3].[Cr+3].[O-2] [Compound 1, [Cr3 O(O2 CCH2 CH3)6 (H2 O)3]^+]",DNA cleavage (literature),pUC19 plasmid DNA [1],not to lead to DNA cleavage
same,stimulation of insulin receptor tyrosine kinase activity,[2],mimic the ability of LMWCr to stimulate insulin receptor kinase activity
same,Glucose,male Sprague Dawley rats [3]; [8],168 ± 33 mg/dL
same,Insulin,male Sprague Dawley rats [3]; [8],99.0 ± 3.2 μIU/mL
same,Total cholesterol,male Sprague Dawley rats [3]; [8],65.2 ± 3.4 mg/dL
same,Triglycerides,male Sprague Dawley rats [3]; [8],83.3 ± 2.7 mg/dL
same,Glucose,male Sprague Dawley rats [3]; [9],75.5 ± 2.9 mg/dL
same,Insulin,male Sprague Dawley rats [3]; [9],43.3 ± 2.1 μIU/mL
same,Total cholesterol,male Sprague Dawley rats [3]; [9],63.8 ± 3.3 mg/dL
same,Glucose,male Sprague Dawley rats [3]; [10],68.2 ± 2.8 mg/dL
same,HDL cholesterol,male Sprague Dawley rats [3]; [10],10.7 ± 0.65 mg/dL
same,Insulin,male Sprague Dawley rats [3]; [10],43.0 ± 1.9 μIU/mL
same,LDL cholesterol,male Sprague Dawley rats [3]; [10],25.6 ± 2.4 mg/dL
same,Total cholesterol,male Sprague Dawley rats [3]; [10],46.9 ± 2.8 mg/dL
same,Triglycerides,male Sprague Dawley rats [3]; [10],53.2 ± 3.7 mg/dL
same,LDL cholesterol concentration less than that of the control,male Sprague Dawley rats [3]; week 12,~40%
same,total cholesterol concentration less than that of the control,male Sprague Dawley rats [3]; week 12,33%
same,toxic effects of supplementation,"male Sprague Dawley rats [4]; 12 weeks, 20 μg Cr/kg daily i.v.",no toxic effects were observed
same,"Tissue mass, Epididymal fat","male Sprague Dawley rats [4]; after 12 weeks, daily tail vein injection, 20 μg Cr per kg body mass, mean ± SEM, eight rats",4.44 + 0.45 grams
same,colonies of E. coli transformed with complex-nicked pUC19 versus supercoiled pUC19,DH5α E. coli cells,the same number of colonies
same,iron concentration of liver,male Sprague Dawley rats [5],6.0×10^2 μg/g dry mass
same,DNA cleavage in the presence of dithiothreitol,pUC19 plasmid DNA [6],does not increase the amount of cleavage
"CC(=O)[O-].CC(=O)[O-].CC(=O)[O-].CC(=O)[O-].CC(=O)[O-].CC(=O)[O-].O.O.O.[Cr+3].[Cr+3].[Cr+3].[O-2] [acetate analogue of 1, [Cr3 O(OAc)6 (H2 O)3]^+, reference compound]",DNA cleavage in the presence of biological reductants (literature),"pUC19 plasmid DNA [1]; Cr(pic)3: 120 nM chromium, 5 mM ascorbic acid or thiols, acetate analogue: ascorbate",unable to catalyze DNA cleavage in the presence of ascorbate
chromium(III) tris(picolinate) [Cr(pic)3],DNA strand breaks,[7],lead to DNA strand breaks
same,acute toxic effects,rats,no acute toxic effects
